Laboratory results reported in the pKa sets of Baltruschat and Czodrowski (2020).

conditions: acidic group

Row | SMILES | pKa
1 | Oc1cc2ccccc2n[nH+]1 | 0.21
2 | O=C(Cc1ccncc1)c1ccccc1 | 12.7
3 | Oc1ccccc1CN1CCCC1 | 10.8
4 | CCCC[Se](=O)O | 5.29
5 | CN(O)C(=O)c1ccccc1 | 8.07
6 | COC(=O)/C=C(\O)c1ccncc1 | 7.51
7 | C/N=C(/SC)c1ccccc1 | 6.42
8 | Nc1ccc(S(=O)(=O)Nc2nncs2)cc1 | 4.77
9 | CC(O)=C(C#N)C#N | 1
10 | O=C(O)[C@H]1O[C@H]1C(=O)[O-] | 3.92
11 | Cn1c(=S)[nH]c2cncnc21 | 7.48
12 | Nc1nc(N)nc([S-])n1 | 10.2
13 | FC(F)(F)c1nc2ncncc2[nH]1 | 5.12
14 | Cc1nnc(NS(=O)(=O)c2ccc(N)cc2)s1 | 5.46
15 | Oc1c(Cl)c(Cl)cc(Cl)c1C[NH+]1CCOCC1 | 4.92
16 | Cc1cc(C(=O)O)ccc1Br | 4.03
17 | Cn1c(CCl)nc2c(O)ccc(O)c21 | 8.4
18 | Oc1c(C(Nc2nc3ccccc3s2)c2ccccn2)ccc2cccnc12 (stereo not given) | 10.9
19 | O=C(O)[C@H]1C[C@@H]1Cl | 4.12
20 | Oc1ccccc1O | 9.33
21 | O=S(Cc1ccccc1)c1ncn[nH]1 (stereo not given) | 7.38

Row | SMILES | pKa
22 | O=C([O-])Cc1nnn[nH]1 | 5.32
23 | Nc1nc2cccc[n+]2o1 | 7.18
24 | O=P([O-])([O-])C([NH2+]Cc1cccnc1)c1ccccc1O (stereo not given) | 10.2
25 | Cc1cccc(S(=O)(=O)O)c1 | -6.56
26 | COc1ccc(O)c(Br)c1 | 8.62
27 | Cc1cc(C(=O)O)n[nH]1 | 3.99
28 | NS(=O)(=O)c1ccc(C(=O)O)cc1 | 3.53
29 | O=C(O)C#Cc1ccccc1 | 2.26
30 | Cc1cc(O)c(C(C)C)cc1Nc1ccc(O)cc1 | 9.85
31 | Brc1ccc2c(c1)-c1ccccc1C2[P+](c1ccccc1)(c1ccccc1)c1ccccc1 (stereo not given) | 7.53
32 | CC(C)(OO)c1ccccc1 | 12.6
33 | O=C(O)C1C2CCC1CC2 (stereo not given) | 4.85
34 | COc1ccc(S(N)(=O)=O)cc1 | 9.93
35 | O=C(O)c1csc(Cl)c1 | 3.8
36 | C[NH+]1C[C@H](C(=O)O)C[C@@]2(O)c3cccc4[nH]cc(c34)C[C@@H]12 | 3.42
37 | CC1NCCc2c1[nH]c1ccc(Cl)cc21 (stereo not given) | 15.2
38 | FC(F)(F)c1cccc(NC=S)c1 | 10.8
39 | N#CC(C#N)=NNc1ccccc1Br | 6.35
40 | O/N=C\C=C\c1ccccc1 | 10.9
41 | O/N=C/C=C/c1ccccc1 | 10.6
42 | O=C1C=C(S(=O)(=O)[O-])c2cn[nH]c2/C1=N\O | 5.85

Row | SMILES | pKa
43 | c1cc2[nH]cnc2cn1 | 10.9
44 | c1ccc(CSc2cnn[nH]2)cc1 | 8.2
45 | Oc1ccc2c(c1)CCC2 | 10.3
46 | O=Cc1ncccc1O | 6.95
47 | N#CC(C#N)Cc1ccc([N+](=O)[O-])cc1 | 10.9
48 | CSc1nc2cc3c(cc2[nH]1)CCCC3 | 13
49 | COc1cccc(O)c1 | 9.51
50 | O=C(O)CC(O)c1ccccc1 (stereo not given) | 4.4
51 | Cc1cc([N+](=O)[O-])ccc1C(=O)O | 2.91
52 | COc1ccc(C(=S)Nc2ccccc2)cc1 | 11.3
53 | Cc1ccc(C(=O)O)c(Br)c1 | 3.09
54 | Cc1n[nH]c(C)c1[N+](=O)[O-] | 10.3
55 | N#CC(O)=C(C#N)C#N | 1.9
56 | CC(=O)C(C(C)=O)c1ccccc1 | 9.32
57 | [NH3+][C@H]1CC[C@@H](C(=O)O)CC1 | 4.6
58 | O=c1c(O)c1-c1ccccc1 | 2.01
59 | Cc1nn(-c2ccccc2)c(O)c1Cc1ccccc1 | 11.8
60 | Cc1cc([N+](=O)[O-])cc2c1nnn2O | 3.43
61 | O=[N+]([O-])CSc1ccccc1 | 6.67
62 | S=C(Nc1ccc(Br)cc1)c1ccccc1 | 10.4

Continued, values first:

Row | pKa | SMILES
63 | 3.53 | [NH3+]C/C=C\C(=O)O
64 | 3.8 | CCOCCn1c(CN2CC[NH+](CCCCn3cc(C(=O)O)cn3)CC2)[nH+]c2ccccc21
65 | 10.4 | CC/C=C/Cc1nccn1[C@H](C(=O)[O-])C(C)(C)S
66 | 2.29 | CCCCC([NH3+])C(=O)O (stereo not given)
67 | 7.3 | NC(=O)C(N)CO (stereo not given)
68 | 11.4 | Cc1ccc(S(=O)(=O)N[C@@H](CC(N)=O)C(=O)[O-])cc1
69 | 9.26 | O=C(Cc1ccccc1)NO
70 | 4.01 | CCCC(O)C(C(=O)O)c1ccc(-c2ccccc2)cc1 (stereo not given)
71 | 7.75 | OCCN1CCN(CCO)CC1
72 | 9.98 | Cc1ncc(CO)c(C)c1O
73 | 7.69 | COc1ccc(-c2nc3nnc(SC)nc3[nH]2)c(OC)c1
74 | 3.1 | CC1(C)S[C@H]2C(C(=O)[O-])[NH+]=C(CCCC([NH3+])C(=O)[O-])N2C1C(=O)O (stereo not given in full)
75 | 10 | CC(=O)CC(=O)Nc1cccc(C)c1
76 | 9.58 | CCCCCC(=O)NO
77 | 10.2 | O=C([O-])CCC(=O)NOCc1ccccc1
78 | 5.01 | CCCCCCCCCCCCCCCCCC(=O)O
79 | 3.95 | CC(C)=C(C(N)=O)C(=O)O

same assay, conditions: basic group

Row | SMILES | pKa
80 | O=C(Cc1ccncc1)c1ccccc1 | 4.63
81 | O=[N+]([O-])c1ccc2[nH]c(CCl)nc2c1 | 2.21
82 | Oc1ccccc1CN1CCCC1 | 8.81
83 | c1cc(N2CCOCC2)ccn1 | 8.79
84 | N[C@H]1C[C@@H]2CCCC[C@H]2C[C@@H]1[NH3+] | 6.97
85 | Nc1ccc2cnccc2c1 | 7.17
86 | C[NH+]1CCN(C(c2ccccc2)c2ccc(Cl)cc2)CC1 (stereo not given) | 2.43
87 | CC1CC(/C=C2\CC(C)(C)CN2)=NC1(C)C (stereo not given) | 12.1
88 | Nc1ccc(S(=O)(=O)Nc2nncs2)cc1 | 2.15
89 | N=C(c1ccccc1)c1cccc(O)c1 | 6.92
90 | Nc1nc(N)nc([S-])n1 | 7.8
91 | FC(F)(F)c1nc2ncncc2[nH]1 | 1
92 | Cc1nnc(NS(=O)(=O)c2ccc(N)cc2)s1 | 2.19
93 | Cc1cc(N)ncn1 | 6.25
94 | Cn1c(CCl)nc2c(O)ccc(O)c21 | 4.03
95 | ClC1CC2CCN1CC2 (stereo not given) | 6.98
96 | Cc1cc(C)c2ccc3c(C)cc(C)nc3c2n1 | 6.5
97 | [NH3+]c1ccc(/C=N/NC(=O)c2ccncc2)cc1 | 3.2
98 | CN(C)c1ccc(SC#N)cc1 | 3.3
99 | NCCCCCc1cccnc1 | 10.3
100 | C=C1[C@@H]2CC3C4N5C[C@]6(C)C[C@@H](OC(C)=O)[C@H](OC(C)=O)[C@]47C6[C@@H]5C[C@]3([C@H]1OC(C)=O)[C@@]7(O)C2 | 8.35

Row | SMILES | pKa
101 | Cn1ccnc1-c1nccn1C | 4.91
102 | Cc1ccc2[nH]cnc2c1 | 5.81
103 | CC(C)c1ccncc1 | 6.02
104 | Cn1ncc2c(N)nc(Cl)nc21 | 2.69
105 | Cc1cc(-c2ccccc2)nn2c(C[NH+]3CCOCC3)cnc12 | 2.9
106 | CN(C)CC[NH+](C)C | 6.04
107 | COc1c2ccccc2nc2ccccc12 | 7
108 | Clc1ccnc(-c2ccccn2)c1 | 3.8
109 | [O-]c1c(Cl)cc(Cl)cc1CN1CCCCC1 | 11.1
110 | Nc1cccc2nnccc12 | 2.7
111 | N#CC(C#N)=NNc1ccccc1Br | -0.8
112 | Nc1nc(N)nc(N)n1 | 5.06
113 | Nc1cnc([S-])nc1N | 10.4
114 | CCCc1ccccn1 | 5.97
115 | N=C(Sc1ccccc1)c1ccccc1 | 4.48
116 | Nc1nccs1 | 5.44
117 | [NH3+][C@@H](Cc1c[nH]cn1)C(=O)N[C@@H](Cc1c[nH]cn1)C(=O)[O-] | 6.8
118 | c1cc2[nH]cnc2cn1 | 6.1
119 | Cc1cccnc1C | 6.57
120 | OC[C@H](O)[C@H](O)[C@@H](O)[C@H](O)c1nc2ccccc2[nH]1 | 5.28
121 | OCCc1cnc(P(c2ncc(CCO)[nH]2)c2ncc(CCO)[nH]2)[nH]1 | 7.7

Row | SMILES | pKa
122 | CSC(=N)c1ccccc1 | 5.84
123 | O=[N+]([O-])c1ccc(-c2ncc(-c3ccccc3)o2)cc1 | -0.61
124 | O=Cc1ncccc1O | 3.4
125 | Cc1ccccc1/C(N)=N/O | 4.03
126 | CSc1nc2cc3c(cc2[nH]1)CCCC3 | 5
127 | O=C([O-])c1ccc2sc(Cn3ccnc3)cc2c1 | 6.34
128 | OCn1cnc2ccccc21 | 5.44
129 | Cc1ccc(CN2CC(O[Si](C)(C)C)C2)cc1 | 8.24
130 | CSc1ccncc1 | 5.97
131 | Cc1cc2ncn([C@H]3O[C@@H](CO)[C@H](O)[C@@H](O)[C@@H]3O)c2cc1C | 4.63
132 | Nc1ccc(Cl)c2ccccc12 | 3.4
133 | Cc1n[nH]c(C)c1[N+](=O)[O-] | -0.22
134 | COc1ccc(CN2CC(O[Si](C)(C)C)C2)cc1 | 8.17
135 | Nc1ccc2[nH]c(Cc3ccccc3)[nH+]c2c1 | 3.3
136 | CCCc1ccc([C@@H]2CCC[NH+]2C)cn1 | 3.65
137 | COc1ccccc1/N=C/N(C)C | 8.11
138 | COc1ccc(-c2nc3ncccc3[nH]2)c(OC)c1 | 4.63
139 | Nc1ccc(Br)cc1 | 3.79
140 | CN1C[C@@H](C(=O)[O-])C[C@@]2(O)c3cccc4[nH]cc(c34)C[C@H]12 | 9
141 | CN(C)/C=N/c1cccc(Cl)c1 | 7.97

Now from value to compound:

Row | pKa | SMILES
142 | 9.13 | CCOC(=O)CCN
143 | 7.75 | CC(C#N)CN (stereo not given)
144 | 4.17 | CCc1ccc(C)nn1
145 | 9.62 | CCN(CC)CCSC
146 | 7.62 | SCCN(Cc1ccccc1)Cc1ccccc1
147 | 9.78 | CCC1CCCN1C (stereo not given)
148 | 8.19 | CCN(CC)Cc1cccc(C)c1O
149 | 7.2 | CC/C=C/Cc1nccn1[C@H](C(=O)[O-])C(C)(C)S
150 | 9.12 | C[NH+](C)CCNCCN
151 | 8.55 | C=CC(=O)OCCN(CC)CC
152 | 7 | C[C@@H](O)[C@H](CCC=O)O[C@H]1O[C@H](C)[C@@H](N(C)C)[C@H](O)[C@H]1O
153 | 10.7 | CCCCCN
154 | 10.2 | CCN(CC)CCCCNc1ccnc2ccccc12
155 | 5.52 | CCNc1nc(N)nc(NCC)n1
156 | 6.71 | Cc1c([N+](=O)[O-])ccc2c(NCCC[NH+](C)C)ccnc12
157 | 4.62 | CC(C)CCNc1ncnc2[nH]ncc12
158 | 9.33 | CC(O)CN(CC(C)O)C(C)C (stereo not given)

Row | pKa | SMILES
159 | 9.92 | COCCCN
160 | 4.9 | CCOCCn1c(N2CCC[NH+](CCCCn3cccn3)CC2)nc2ccccc21
161 | 4.05 | COCCNc1ccccc1
162 | 7.61 | CC(C)(N)C(N)=S
163 | 7.96 | C=C(C)C(=O)OC(C)CN(C)C (stereo not given)
164 | 5.67 | CC(C)Nc1ccccc1
165 | 11 | CCN(CC)C/C(C)=N/[O-]
166 | 5.4 | Cc1ncc(CO)c(C)c1O
167 | 6.99 | OCc1cc(-c2ccccc2)nnc1NCCN1CCOCC1
168 | 5.15 | C[C@H]1[C@@H]([NH3+])[C@@H](C)[C@@H](N)[C@@H](C)[C@H]1[NH3+]
169 | 8.53 | CCC(N)CCCl (stereo not given)
170 | 10.5 | CN(C)CCCCCCCCNC(=O)/C=N/[O-]
171 | 4.02 | CC[NH+](CC)CCNc1nc(C)nc(Nc2ccc(Cl)cc2)n1
172 | 3.96 | Cn1ncc2c(NC(C)(C)CC(C)(C)C)ncnc21
173 | 8.3 | NCc1ccncc1
174 | 10.2 | CNCCN(C)CCN
175 | 6.77 | [NH3+]CC(=O)N[C@@H](Cc1c[nH]cn1)C(=O)[O-]
